For experiment [1], the target named is Tumor necrosis factor receptor superfamily member 10B (Homo sapiens) (UniProt O14763). The experiment in a line: TRAIL sensitizers in caspase-8 expressing neuroblastoma cells, dose response, NB7 cells plus caspase-8, luminescence, panel (AID 652002). Particulars: NB7 neuroblastoma +caspase-8, TRAIL sensitization, luminescence viability; NB7+Caspase-8; with TRAIL, mean of runs.

Experiment [2] has as its target NB7+Caspase-8. The experiment is described as above. Particulars: NB7 neuroblastoma +caspase-8, TRAIL sensitization, luminescence viability, with TRAIL.
Experiment in experiment [3]: as above
As to conditions: NB7 neuroblastoma +caspase-8, no TRAIL, compound-alone cytotoxicity counter-screen, luminescence viability, NB7+Caspase-8. (A counterscreen serves to expose hits that act by an unwanted route or on another target.)

Setting [4] is: run 1, single replicate panel EC50.
[5] abbreviates: run 2, single replicate panel EC50.

Molecules are shown by their SMILES. Activity calls are given as the source filed them. How the calls were made is not given here.

Tumor necrosis factor receptor superfamily member 10B (Homo sapiens), sequence (O14763 whole entry, looked up): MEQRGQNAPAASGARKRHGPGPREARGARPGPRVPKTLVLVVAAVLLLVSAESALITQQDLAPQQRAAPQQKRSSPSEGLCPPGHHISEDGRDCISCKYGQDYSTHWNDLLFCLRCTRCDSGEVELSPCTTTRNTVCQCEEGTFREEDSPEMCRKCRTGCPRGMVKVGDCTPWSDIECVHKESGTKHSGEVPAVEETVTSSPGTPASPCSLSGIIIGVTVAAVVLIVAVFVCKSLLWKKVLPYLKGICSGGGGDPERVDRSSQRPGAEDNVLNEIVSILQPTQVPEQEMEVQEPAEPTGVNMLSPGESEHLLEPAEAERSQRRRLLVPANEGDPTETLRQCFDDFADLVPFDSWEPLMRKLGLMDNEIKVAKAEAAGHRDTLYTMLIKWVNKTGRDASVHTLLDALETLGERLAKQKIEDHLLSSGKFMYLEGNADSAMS

With `O=C1CCCc2nc(N3CCc4ccccc43)ncc21`, the EC50 in experiment [1] was > 12.5 µM (inactive); in experiment [2] (setting [4]), greater than 12.5 µM; in experiment [2] (setting [5]), greater than 12.5 µM; in experiment [3] (mean of runs), > 12.5 µM (inactive); in experiment [3] (setting [4]), greater than 12.5 µM; in experiment [3] (setting [5]), greater than 12.5 µM.

Regarding `CN(C(=O)COC(=O)c1cnc(Cl)c(Cl)c1)C1CCCCC1`, the EC50 in experiment [1] was > 12.5 µM (inactive); in experiment [2] (setting [4]), greater than 12.5 µM; in experiment [2] (setting [5]) it was greater than 12.5 µM; in experiment [3] (mean of runs), > 12.5 µM (inactive); in experiment [3] (setting [4]), greater than 12.5 µM; in experiment [3] (setting [5]), greater than 12.5 µM.

`O=C(NCC1CCCO1)c1ccc2c3n(nc2c1)-c1ccccc1CO3` (stereo not drawn): the EC50 entry in experiment [1] is “inactive”. The EC50 in experiment [2] (setting [4]) is greater than 12.5 µM; in experiment [2] (setting [5]), 8.3 µM; in experiment [3] (mean of runs), > 12.5 µM (inactive); in experiment [3] (setting [4]), greater than 12.5 µM; in experiment [3] (setting [5]), greater than 12.5 µM.

Turning to `O=C(Nc1ccc(C(=O)O)cc1)/C(=C\C=C\c1ccccc1)NC(=O)c1ccccc1Cl`, the EC50 result in experiment [1] and in experiment [3] (mean of runs) was “inactive” in each case. In addition, the EC50 was greater than 12.5 µM in experiment [2] (setting [4]), 3.5 µM in experiment [2] (setting [5]), 7.94 µM in experiment [3] (setting [4]) and greater than 12.5 µM in experiment [3] (setting [5]).

For `O=C(Nc1ccc(Br)cc1F)c1ccc2c(c1)OCCO2`, the EC50 entry in experiment [1] and in experiment [3] (mean of runs) was “inactive” in each case. Also, the EC50 in experiment [2] (setting [4]) is greater than 12.5 µM; in experiment [2] (setting [5]), 12.5 µM; in experiment [3] (setting [4]) it was greater than 12.5 µM; in experiment [3] (setting [5]), 11.2 µM.

For `COCCNC(=O)c1cc(-c2ccc(-c3ccccc3)cc2)nc2ccccc12`, the EC50 entry in experiment [1] and in experiment [3] (mean of runs) was “inactive” each time. The EC50 is greater than 12.5 µM in experiment [2] (setting [4]), 6.28 µM in experiment [2] (setting [5]), greater than 12.5 µM in experiment [3] (setting [4]) and 2.09 µM in experiment [3] (setting [5]).

`CCOc1ccc(NC(=O)Nc2cccs2)cc1`: the EC50 result in experiment [1] and in experiment [3] (mean of runs) was “inactive” each time. Moreover, the EC50 is greater than 12.5 µM in experiment [2] (setting [4]), 6.86 µM in experiment [2] (setting [5]), 10.7 µM in experiment [3] (setting [4]) and 6.47 µM in experiment [3] (setting [5]).

Regarding `C#CC(=O)CC1(CN(Cc2ccccc2)C(=O)OC(C)(C)C)CCCCC1`, the EC50 result in experiment [1] and in experiment [3] (mean of runs) was “inactive” each time. The EC50 is 3.12 µM in experiment [2] (setting [4]), 7.51 µM in experiment [2] (setting [5]), 7.26 µM in experiment [3] (setting [4]) and 1.52 µM in experiment [3] (setting [5]).

Turning to `Cc1ccc2c(c1)C(=NC1CCCCC1)c1cc3ccccc3nc1-2`, the EC50 in experiment [1] is > 12.5 µM (inactive); in experiment [2] (setting [4]), greater than 12.5 µM; in experiment [2] (setting [5]), greater than 12.5 µM; in experiment [3] (mean of runs), > 12.5 µM (inactive); in experiment [3] (setting [4]), greater than 12.5 µM; in experiment [3] (setting [5]) it was greater than 12.5 µM.

For the compound `CN(C)CCCN(C(=O)c1ccc(C(=O)c2ccccc2)cc1)c1nc2ccc(F)cc2s1`, the EC50 in experiment [1] was > 12.5 µM (inactive); in experiment [2] (setting [4]), greater than 12.5 µM; in experiment [2] (setting [5]), greater than 12.5 µM; in experiment [3] (mean of runs) it was > 12.5 µM (inactive); in experiment [3] (setting [4]) it was greater than 12.5 µM; in experiment [3] (setting [5]), greater than 12.5 µM.

For the compound `CCN(CC)c1ccc(NC(=O)Nc2ccccc2)cc1`, the EC50 entry in experiment [1] and in experiment [3] (mean of runs) was “inactive” in each case. The EC50 in experiment [2] (setting [4]) is greater than 12.5 µM; in experiment [2] (setting [5]), 8.27 µM; in experiment [3] (setting [4]) it was greater than 12.5 µM; in experiment [3] (setting [5]) it was 10.9 µM.

`CCOC(=O)c1cnc2c(-c3ccccc3)cnn2c1N`: the EC50 in experiment [1] is > 12.5 µM (inactive); in experiment [2] (setting [4]) it was greater than 12.5 µM; in experiment [2] (setting [5]) it was greater than 12.5 µM; in experiment [3] (mean of runs), > 12.5 µM (inactive); in experiment [3] (setting [4]), greater than 12.5 µM; in experiment [3] (setting [5]), greater than 12.5 µM.

Take `CCOC(=O)c1sc(NC(=O)c2cccc(S(=O)(=O)N3CCc4ccccc43)c2)c(C#N)c1C`: the EC50 in experiment [1] was > 12.5 µM (inactive); in experiment [2] (setting [4]) it was greater than 12.5 µM; in experiment [2] (setting [5]) it was greater than 12.5 µM; in experiment [3] (mean of runs), > 12.5 µM (inactive); in experiment [3] (setting [4]) it was greater than 12.5 µM; in experiment [3] (setting [5]) it was greater than 12.5 µM.

On to `Cc1ccc2c(c1)-c1nc3ccccc3cc1C2=NC1CCCCC1`, for which the EC50 result in experiment [1] was “inactive”. For the same compound, the EC50 in experiment [2] (setting [4]) was greater than 12.5 µM; in experiment [2] (setting [5]), 7.45 µM; in experiment [3] (mean of runs), > 12.5 µM (inactive); in experiment [3] (setting [4]) it was greater than 12.5 µM; in experiment [3] (setting [5]), greater than 12.5 µM.

With `c1ccc(-c2cnc(-c3ccccn3)nn2)cc1`, the EC50 entry in experiment [1] and in experiment [3] (mean of runs) was “inactive” each time. The EC50 in experiment [2] (setting [4]) was greater than 12.5 µM; in experiment [2] (setting [5]), 5.78 µM; in experiment [3] (setting [4]), 5.74 µM; in experiment [3] (setting [5]), 10 µM.

In the case of `O=C(Nc1cnc2ccccn2c1=O)c1ccc(Cl)cc1Cl`, the EC50 in experiment [1] is > 12.5 µM (inactive); in experiment [2] (setting [4]), greater than 12.5 µM; in experiment [2] (setting [5]) it was greater than 12.5 µM; in experiment [3] (mean of runs), > 12.5 µM (inactive); in experiment [3] (setting [4]) it was greater than 12.5 µM; in experiment [3] (setting [5]) it was greater than 12.5 µM.

As to `CN(C)c1ccc(N/C=C/C(=O)c2ccco2)cc1`, the EC50 result in experiment [1] and in experiment [3] (mean of runs) was “inactive” throughout. In addition, the EC50 in experiment [2] (setting [4]) was 7.78 µM; in experiment [2] (setting [5]), 6.42 µM; in experiment [3] (setting [4]), 7.62 µM; in experiment [3] (setting [5]), greater than 12.5 µM.

As for `O=C(NC(=S)Nc1nc2c(s1)CCCC2)c1ccccc1`, the EC50 result in experiment [1] is “inactive”. Besides, the EC50 was 7.43 µM in experiment [2] (setting [4]); greater than 12.5 µM in experiment [2] (setting [5]); > 12.5 µM (inactive) in experiment [3] (mean of runs); greater than 12.5 µM in experiment [3] (setting [4]); greater than 12.5 µM in experiment [3] (setting [5]).

`CC1(C)N=C(N)N=C(N)N1c1ccc(Oc2ccc(Cl)cc2)c(Cl)c1`: the EC50 entry in experiment [1] and in experiment [3] (mean of runs) was “inactive” throughout. Besides, the EC50 in experiment [2] (setting [4]) was 1.33 µM; in experiment [2] (setting [5]), 0.948 µM; in experiment [3] (setting [4]), 1.64 µM; in experiment [3] (setting [5]), 0.423 µM.

Turning to `COc1cccc(N/C=C/C(=O)c2ccc(Cl)cc2)c1`, the EC50 result in experiment [1] and in experiment [3] (mean of runs) was “inactive” each time. Further, the EC50 in experiment [2] (setting [4]) is greater than 12.5 µM; in experiment [2] (setting [5]) it was 11.1 µM; in experiment [3] (setting [4]) it was 10.4 µM; in experiment [3] (setting [5]), 10.3 µM.

On to `Cc1ccc(NC(=O)c2cc3ccccc3o2)nc1`, for which the EC50 entry in experiment [1] and in experiment [3] (mean of runs) was “inactive” in each case. Besides, the EC50 in experiment [2] (setting [4]) is greater than 12.5 µM; in experiment [2] (setting [5]), 8.86 µM; in experiment [3] (setting [4]) it was 7.34 µM; in experiment [3] (setting [5]), 11 µM.

Regarding `CC(C)C[C@H](NC(=O)c1nc[nH]c1C(=O)N[C@@H](CC(C)C)C(=O)OCc1ccccc1)C(=O)OCc1ccccc1`, the EC50 was > 12.5 µM (inactive) in experiment [1]; greater than 12.5 µM in experiment [2] (setting [4]); greater than 12.5 µM in experiment [2] (setting [5]); > 12.5 µM (inactive) in experiment [3] (mean of runs); greater than 12.5 µM in experiment [3] (setting [4]); greater than 12.5 µM in experiment [3] (setting [5]).

Take `Cc1nn(-c2ccccc2)c2nc(N)c(C#N)c(-c3ccc(F)cc3)c12`: the EC50 in experiment [1] was > 12.5 µM (inactive); in experiment [2] (setting [4]) it was greater than 12.5 µM; in experiment [2] (setting [5]), greater than 12.5 µM; in experiment [3] (setting [4]), greater than 12.5 µM; in experiment [3] (setting [5]), 11.5 µM. In experiment [3] (mean of runs), the EC50 result is “inactive”.

For orientation: EC50 means the concentration giving half of the maximal effect.
